According to ChEMBL document CHEMBL3399947, “Structure activity relationship of selective GABA uptake inhibitors” (Bioorg Med Chem, 2015):

Legend:
Type in all cases: cell-based
GABA transporter 2 = target: T1, GABA transporter 2 (Mus musculus, UniProt P31651); assay: Inhibition of mouse mGAT2 expressed in HEK293 cells assessed as inhibition of [3H]GABA uptake after 3 mins incubation by TopCount microplate scintillation counting analysis
T1 sequence (P31651 whole entry): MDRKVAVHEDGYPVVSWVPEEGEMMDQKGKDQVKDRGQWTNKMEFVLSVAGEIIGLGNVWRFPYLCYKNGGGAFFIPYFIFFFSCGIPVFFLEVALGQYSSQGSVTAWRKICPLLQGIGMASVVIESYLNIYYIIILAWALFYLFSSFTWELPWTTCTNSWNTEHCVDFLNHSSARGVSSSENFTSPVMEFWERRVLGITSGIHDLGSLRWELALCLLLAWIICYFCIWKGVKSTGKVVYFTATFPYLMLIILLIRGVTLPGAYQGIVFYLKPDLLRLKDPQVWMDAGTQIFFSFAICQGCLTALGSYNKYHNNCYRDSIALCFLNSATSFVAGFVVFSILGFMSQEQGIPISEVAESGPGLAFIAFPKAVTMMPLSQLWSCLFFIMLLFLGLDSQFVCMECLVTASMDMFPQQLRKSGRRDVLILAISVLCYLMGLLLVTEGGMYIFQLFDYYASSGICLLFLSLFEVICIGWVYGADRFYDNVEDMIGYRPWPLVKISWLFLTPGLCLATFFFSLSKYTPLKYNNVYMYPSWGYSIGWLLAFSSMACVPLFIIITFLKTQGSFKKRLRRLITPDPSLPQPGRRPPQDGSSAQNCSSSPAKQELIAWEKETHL

GABA transporter 4 = target: T2, GABA transporter 4 (Mus musculus, UniProt P31650); assay: Inhibition of mouse mGAT4 expressed in HEK293 cells assessed as inhibition of [3H]GABA uptake after 3 mins incubation by TopCount microplate scintillation counting analysis
T2 sequence (P31650 whole entry): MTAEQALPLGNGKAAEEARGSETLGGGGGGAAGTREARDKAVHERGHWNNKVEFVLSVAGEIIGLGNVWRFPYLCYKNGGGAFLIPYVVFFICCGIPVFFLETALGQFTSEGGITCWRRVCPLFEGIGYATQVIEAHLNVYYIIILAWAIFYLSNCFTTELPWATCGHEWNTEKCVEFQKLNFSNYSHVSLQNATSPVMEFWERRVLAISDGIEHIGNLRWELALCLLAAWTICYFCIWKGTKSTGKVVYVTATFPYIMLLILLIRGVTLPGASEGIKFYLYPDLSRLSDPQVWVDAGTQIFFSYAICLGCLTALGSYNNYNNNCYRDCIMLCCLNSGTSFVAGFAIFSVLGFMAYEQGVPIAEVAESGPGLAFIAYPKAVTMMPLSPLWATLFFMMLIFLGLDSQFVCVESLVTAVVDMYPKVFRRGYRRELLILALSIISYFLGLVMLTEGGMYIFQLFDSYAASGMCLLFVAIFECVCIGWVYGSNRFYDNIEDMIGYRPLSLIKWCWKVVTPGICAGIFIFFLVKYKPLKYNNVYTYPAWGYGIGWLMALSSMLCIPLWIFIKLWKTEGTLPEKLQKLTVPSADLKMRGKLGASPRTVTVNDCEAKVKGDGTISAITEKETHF

GABA transporter 3 = target: T3, GABA transporter 3 (Mus musculus, UniProt P31649); assay: Inhibition of mouse mGAT3 expressed in HEK293 cells assessed as inhibition of [3H]GABA uptake after 3 mins incubation by TopCount microplate scintillation counting analysis
T3 sequence (P31649 whole entry): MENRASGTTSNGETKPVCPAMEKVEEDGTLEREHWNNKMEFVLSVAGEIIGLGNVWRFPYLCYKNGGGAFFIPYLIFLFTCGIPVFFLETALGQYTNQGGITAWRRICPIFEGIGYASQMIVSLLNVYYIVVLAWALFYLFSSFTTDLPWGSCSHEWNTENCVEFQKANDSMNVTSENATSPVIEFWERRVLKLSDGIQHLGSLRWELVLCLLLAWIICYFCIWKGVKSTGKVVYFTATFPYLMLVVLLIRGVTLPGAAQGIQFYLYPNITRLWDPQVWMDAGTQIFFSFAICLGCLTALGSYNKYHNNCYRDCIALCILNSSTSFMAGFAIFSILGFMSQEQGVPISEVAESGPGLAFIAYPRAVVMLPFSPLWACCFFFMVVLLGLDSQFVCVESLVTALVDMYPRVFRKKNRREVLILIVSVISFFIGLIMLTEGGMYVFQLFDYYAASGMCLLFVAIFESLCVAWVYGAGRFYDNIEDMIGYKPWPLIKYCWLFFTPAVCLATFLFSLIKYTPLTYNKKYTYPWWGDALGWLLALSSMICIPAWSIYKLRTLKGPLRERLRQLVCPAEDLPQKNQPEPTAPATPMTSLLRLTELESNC

[1] = target: Sodium- and chloride-dependent GABA transporter 1 (Mus musculus, UniProt P31648); assay: Inhibition of mouse mGAT1 expressed in HEK293 cells assessed as inhibition of [3H]GABA uptake after 3 mins incubation by TopCount microplate scintillation counting analysis

IC50 (GABA transporter 2; read-out: IC50) | IC50 (GABA transporter 4; read-out: IC50) | IC50 (GABA transporter 3; read-out: IC50) | IC50 ([1]; read-out: IC50) | IC50 (GABA transporter 3; read-out: pIC50 (converted)) | IC50 (GABA transporter 4; read-out: pIC50 (converted)) | IC50 ([1]; read-out: pIC50 (converted)) | IC50 (GABA transporter 2; read-out: pIC50 (converted)) | Structure (SMILES) | IC50 (GABA transporter 4; hek293, read-out: IC50) | IC50 (GABA transporter 3; hek293, read-out: IC50)
201 µM | 1220 µM | 654 µM | 604 µM | 646 µM |  |  |  | CCOC(=O)[C@H]1CCCC[C@H]1N(C)CCC=C(c1sccc1C)c1sccc1C |  | 
119 µM | 883 µM | 966 µM | 614 µM |  |  |  |  | CN(CCC=C1c2ccccc2CCc2ccccc21)[C@@H]1CCCC[C@H]1C(=O)O |  | 
139 µM | 715 µM | 1240 µM | 962 µM |  | 724 µM |  |  | CN(CCC=C1c2ccccc2CCc2ccccc21)[C@H]1CCCC[C@@H]1C(=O)O |  | 
97.1 µM | 299 µM | 393 µM | 421 µM |  |  |  |  | CN(CCOC(c1ccc(C(F)(F)F)cc1)c1ccc(C(F)(F)F)cc1)[C@@H]1CCCC[C@H]1C(=O)O |  | 
147 µM | 649 µM | 1840 µM | 1360 µM | 1450 µM |  |  |  | CN(CCC=C1c2ccccc2CCc2ccccc21)[C@H]1CCCC[C@H]1C(=O)O |  | 
88.9 µM | 1450 µM | 1030 µM | 1820 µM |  |  |  |  | CN(CCC=C1c2ccccc2CCc2ccccc21)[C@@H]1CCCC[C@@H]1C(=O)O |  | 
90 µM | 303 µM | 392 µM | 631 µM |  |  |  |  | CN(CCOC(c1ccc(C(F)(F)F)cc1)c1ccc(C(F)(F)F)cc1)[C@H]1CCCC[C@H]1C(=O)O |  | 
63.1 µM | 539 µM | 336 µM | 445 µM |  |  |  |  | CN(CCOC(c1ccc(C(F)(F)F)cc1)c1ccc(C(F)(F)F)cc1)[C@@H]1CCCC[C@@H]1C(=O)O |  | 
81 µM | 821 µM | 687 µM | 425 µM |  |  | 537 µM |  | CN(CCC=C1c2ccccc2CCc2ccccc21)C1CCCC=C1C(=O)O (stereo not drawn) |  | 
27 µM | 146 µM | 168 µM | 215 µM |  |  |  |  | Cc1ccsc1C(=CCCN(C)[C@H]1CCCC[C@H]1CO)c1sccc1C |  | 
34.8 µM | 178 µM | 133 µM | 239 µM |  |  |  |  | Cc1ccsc1C(=CCCN(C)[C@@H]1CCCC[C@@H]1CO)c1sccc1C |  | 
49.1 µM | 136 µM | 295 µM | 415 µM |  |  |  |  | CN(CCON=C(c1ccccc1)c1ccccc1)[C@H]1CCCC[C@H]1CO |  | 
76.6 µM | 341 µM | 349 µM | 426 µM |  |  |  | 77.6 µM | CN(CCON=C(c1ccccc1)c1ccccc1)[C@@H]1CCCC[C@@H]1CO |  | 
28.3 µM | 126 µM | 148 µM | 191 µM |  |  |  |  | CN(CCC=C1c2ccccc2CCc2ccccc21)[C@H]1CCCC[C@H]1CO |  | 
50 µM | 171 µM | 153 µM | 286 µM |  |  |  |  | CN(CCC=C1c2ccccc2CCc2ccccc21)[C@@H]1CCCC[C@@H]1CO |  | 
133 µM | 181 µM | 328 µM | 359 µM |  |  |  |  | CN(CCOC(c1ccc(C(F)(F)F)cc1)c1ccc(C(F)(F)F)cc1)[C@H]1CCCC[C@H]1CO |  | 
63.3 µM | 866 µM | 119 µM | 223 µM |  |  |  |  | CN(CCOC(c1ccc(C(F)(F)F)cc1)c1ccc(C(F)(F)F)cc1)[C@@H]1CCCC[C@@H]1CO |  | 
217 µM | 835 µM | 602 µM | 801 µM |  |  |  |  | CCOC(=O)[C@@H]1CCCC[C@@H]1N(C)CCC=C(c1sccc1C)c1sccc1C |  | 
114 µM | 836 µM | 1050 µM | 1240 µM |  |  |  |  | CCOC(=O)[C@H]1CCCC[C@H]1N(C)CCON=C(c1ccccc1)c1ccccc1 |  | 
375 µM | 1670 µM | 1340 µM | 1370 µM |  |  |  |  | CCOC(=O)[C@@H]1CCCC[C@@H]1N(C)CCC=C1c2ccccc2CCc2ccccc21 |  | 
444 µM | > 1000 µM | 1400 µM | 1190 µM | 1740 µM |  |  |  | CCOC(=O)[C@H]1CCCC[C@H]1N(C)CCC=C1c2ccccc2CCc2ccccc21 |  | 
417 µM | 1470 µM | 652 µM | 508 µM |  |  |  |  | CCOC(=O)[C@@H]1CCCC[C@@H]1N(C)CCOC(c1ccc(C(F)(F)F)cc1)c1ccc(C(F)(F)F)cc1 |  | 
325 µM | 1210 µM | 511 µM | 425 µM |  |  |  |  | CCOC(=O)[C@H]1CCCC[C@H]1N(C)CCOC(c1ccc(C(F)(F)F)cc1)c1ccc(C(F)(F)F)cc1 |  | 
179 µM | 254 µM | 137 µM | 160 µM |  |  |  |  | CNCCC=C(c1sccc1C)c1sccc1C |  | 
430 µM | 829 µM | 1050 µM | > 2000 µM |  |  |  |  | CNCCON=C(c1ccccc1)c1ccccc1 |  | 
190 µM | 143 µM | 58 µM | 163 µM |  |  |  |  | CNCCOC(c1ccc(C(F)(F)F)cc1)c1ccc(C(F)(F)F)cc1 |  | 
504 µM | 1730 µM | 796 µM | 171 µM |  |  |  |  | Cc1ccsc1C(=CCCNCCC(=O)O)c1sccc1C |  | 
1380 µM | 4060 µM | 3250 µM | 281 µM |  |  |  |  | O=C(O)CCNCCC=C1c2ccccc2CCc2ccccc21 |  | 

Structure (SMILES) | IC50 (GABA transporter 2; read-out: IC50) | IC50 (GABA transporter 4; read-out: IC50) | IC50 (GABA transporter 3; read-out: IC50) | IC50 ([1]; read-out: IC50) | IC50 (GABA transporter 3; read-out: pIC50 (converted)) | IC50 (GABA transporter 4; read-out: pIC50 (converted)) | IC50 ([1]; read-out: pIC50 (converted)) | IC50 (GABA transporter 2; read-out: pIC50 (converted)) | IC50 (GABA transporter 4; hek293, read-out: IC50) | IC50 (GABA transporter 3; hek293, read-out: IC50)
Cc1ccsc1C(=CCCN(C)[C@@H]1CCCC[C@@H]1C(=O)O)c1sccc1C | 94.9 µM | 380 µM | 328 µM | 917 µM |  |  |  |  |  | 
Cc1ccsc1C(=CCCN(C)[C@H]1CCCC[C@@H]1C(=O)O)c1sccc1C | 62.2 µM | 263 µM | 478 µM | 264 µM |  |  |  |  |  | 
Cc1ccsc1C(=CCCN(C)[C@@H]1CCCC[C@H]1C(=O)O)c1sccc1C | 133 µM | 551 µM | 633 µM | 194 µM |  |  |  |  |  | 
CN(CCON=C(c1ccccc1)c1ccccc1)[C@@H]1CCCC[C@H]1C(=O)O | 880 µM |  |  | > 2000 µM |  |  |  |  | > 2000 µM | > 2000 µM
Cc1ccsc1C(=CCCN(C)[C@H]1CCCC[C@H]1C(=O)O)c1sccc1C | 21.6 µM | 289 µM | 941 µM | 562 µM |  |  |  |  |  | 
CN(CCON=C(c1ccccc1)c1ccccc1)[C@H]1CCCC[C@H]1C(=O)O | 417 µM | > 1000 µM | > 1000 µM | > 1000 µM |  |  |  |  |  | 
CN(CCON=C(c1ccccc1)c1ccccc1)[C@@H]1CCCC[C@@H]1C(=O)O | 443 µM | > 1000 µM | > 1000 µM | > 1000 µM |  |  |  |  |  | 
CN(CCON=C(c1ccccc1)c1ccccc1)C1CCCC=C1C(=O)O (stereo not drawn) | 814 µM | > 2000 µM | > 2000 µM | > 2000 µM |  |  |  |  |  | 
CN(CCOC(c1ccc(C(F)(F)F)cc1)c1ccc(C(F)(F)F)cc1)C1CCCC=C1C(=O)O (stereo not drawn) | 107 µM | > 1000 µM | > 1000 µM | > 1000 µM |  |  |  |  |  | 
O=C(O)CCNCCON=C(c1ccccc1)c1ccccc1 | > 1000 µM | 310 µM | 290 µM | 6.99 µM |  |  |  |  |  | 
